pIC50: −log10 of the molar value. Where “and” joins values, the source holds several entries; their conditions need not be identical. Equal values may be shown once. Read-outs that look alike come from different tables or passages of the source. Marks after values point to notes of the source that are not given here.
Columns and labels:
CYP 2C19 [1] = molecular target: CYP 2C19 (Homo sapiens, UniProt P33261); assay: CYP inhibition with probe substrate; assay type: in vitro ADME; details: probe substrate mephenytoin
From the text: (§1) The inhibition of cytochrome P450 (CYP) isoforms and a range of cellular transporters (except multidrug and toxin extrusion [MATE] proteins), as well as the induction of CYP isoforms were investigated using previously described methods.

[2] = Mass balance and metabolite profiling in excreta after oral [14C]-nifurtimox in intact rats; details: intact male Wistar rats, 2.5 mg/kg oral, up to 120 h
Procedure: After an adaption period, the animals were prepared for the study. Bile duct cannulation was performed on selected animals the day before their use in experiments.
In a mass balance study (n = 5) and a PK study (n = 2 per timepoint), 2.5 mg/kg b.w. […] For i.v. administration, 2.5 mg/kg b.w. […] In an additional stability study, male Wistar rats (n = 3 per timepoint) were administered 2.5 mg/kg b.w. […] The total radioactivity concentration in the dosage form was confirmed by liquid scintillation counting (LSC).
Animals were housed in suitable metabolism cages. Blood was collected from separate rats at 0.25, 0.5, 1, 1.5, 2, 3, 5, and 8 h post-dose and stored in lithium heparinized tubes. Blood cells and plasma were separated by centrifugation. Plasma was stored at ≤-15°C prior to analysis. […] At the end of the study, the cages were rinsed with water, and samples were collected. All biological samples were weighed immediately. Feces samples were homogenized with water to obtain a uniform radioactivity distribution. All samples were stored deep-frozen at ≤-15/-70°C before further processing. During the necropsy, selected organs and tissues were collected and wet-weighed. The remaining carcass was also wet-weighed. The carcass and all tissues were homogenized and stored at room temperature prior to processing for analysis. In the stability study, blood and urine were collected at 0.25 and 0.5 h post-dose. Plasma and urine were immediately frozen in liquid nitrogen and stored at -80°C to prevent degradation. The total radioactivity in samples and tissues was determined by LSC after appropriate sample preparation.
Aliquots of individual urine or bile samples were pooled separately for each time interval by equal volume and analyzed using HPLC-LSC. Aliquots of individual feces samples were pooled separately for each time interval, ensuring that each aliquot contained the same amount of radioactivity. The pooled samples were extracted twice with a mixture of acetonitrile/water (80:20 v/v, 2 x 0.5 mL). The resulting suspensions were centrifuged (20,000 g, 5 min), and the supernatants were then combined for each time interval, concentrated, and subjected to HPLC-LSC.
The amount of total radioactivity in urine, feces, bile, and tissues was determined by multiplying the volume or weight of the samples by the respective total radioactivity concentration. The amount of radioactivity recovered in the excreta (AE), cage wash, and tissues was compared with the administered radioactive dose to establish the radioactive balance. Cumulative excretion was calculated as the sum of the excretion for each collection interval. Arithmetic means and coefficients of variation (CV) were calculated for these percentages. During metabolite profiling, the concentration or amount of each analyte for each sample and timepoint or interval was calculated by multiplying the total radioactivity concentration or amount excreted of each sample with the percent area of each analyte obtained after HPLC-LSC separation.

[3] = Quantification of nifurtimox and metabolites in human plasma (LC-HRMS), plasma PK; assay type: in vivo; details: fed; for AUC(tlast-∞) (extrapolated proportion): pooled plasma of 6 patients, single oral 120 mg nifurtimox; for AUC, % of total quantified exposure: sum of AUC of nifurtimox and M-1 to M-6 = 100%, single oral 120 mg
Procedure: Plasma samples from timepoints 0, 0.25, 0.5, 0.75, 1, 1.5, 2, 2.5, 3, 4, 6, 8, 12, 15, and 24 h from 6 patients were analyzed. Blood samples were collected into lithium heparinized tubes. Blood cells and plasma were then separated by centrifugation, and the plasma was stored frozen until needed. For the analysis, plasma samples were thawed at room temperature and homogenized by vortex mixing. Equal volumes of plasma from the six patients for each timepoint were combined to a pooled volume of 200 µL. To precipitate protein, a 3-fold volume of acetonitrile/0.5% formic acid (v/v in water) was added to each pooled sample which was thoroughly mixed and then centrifuged at 20,000 g. […] For all analytes, the analytical precision ranged from 0.1% to 8.8%, and the accuracy was 95% to 108%.

[4] = Quantification of nifurtimox and metabolites in rat plasma after a single high dose (200 mg/kg); assay type: in vivo, Wistar rats; details: for AUC(0-t) / AUC / Cmax / Tmax / half-life: Wistar, rat, plasma, po, 200 mg/kg; for ratio of rat:human AUC(0-24): rat 200 mg/kg oral vs human 120 mg oral
Procedure: Blood cells and plasma were then separated by centrifugation, and the plasma was stored at ≤-15°C until required. For analysis, plasma samples were thawed at room temperature and homogenized by vortex mixing. Plasma samples were pooled separately for male and female rats by combining 25 µL from each of the 4 animals for each timepoint. […] To each pooled plasma (100 µL), calibration, or control sample, 300 µL of an internal standard solution containing [^2H8]-nifurtimox (500 ng/mL) and [^2H3]-M-6 (2500 ng/mL) in acetonitrile + 0.5% formic acid in water (v/v) was added and mixed thoroughly. All samples were then centrifuged (20,000 g, 5 min) to precipitate the protein. The supernatant was analyzed using a 1290 Infinity LC system equipped with a diode array detector and an Orbitrap Q-Exactive Plus HRMS (Thermo Fisher Scientific, Bremen, Germany) with a heated electrospray ionization source. […] The mobile phase gradient was: 0 min, 0% B; 2.5 min, 0% B; 3 min, 20% B; 8 min, 45% B; 9 min, 90% B; 10.1 min, 90% B; 12 min, 0% B; 13 min, 0% B. The following HRMS parameters were used: mass range, 120-200 Da (0-2.5 min) and 230-600 Da (2.5-13 min) in full scan mode; resolution, 280,000; ion source voltage, 3500 V; capillary temperature, 300°C; source temperature, 60°C.
The calibration was based on the relative peak area as a function of concentration obtained by linear regression. […] Thus, all concentrations in μg/mL were back-calculated to nmol/mL. The PK parameters for each analyte were calculated using ToxKin software, as described above.

[5] = Mass balance and metabolite profiling in excreta after i.v. [14C]-nifurtimox in bile duct-cannulated (BDC) rats; assay type: in vivo, male Wistar rats; details: BDC male Wistar rats, 2.5 mg/kg i.v., up to 24 h
Procedure: (§2) Animals were housed in suitable metabolism cages. […] Blood cells and plasma were separated by centrifugation. Plasma was stored at ≤-15°C prior to analysis. […] All biological samples were weighed immediately. […] The remaining carcass was also wet-weighed.

[6] = Plasma PK of total radioactivity, [14C]-nifurtimox and metabolites after oral dosing (HPLC-LSC); assay type: in vivo; details: male Wistar rats
Procedure: as §2
Aliquots of individual plasma samples were pooled separately for each timepoint by equal volume. For protein precipitation, pooled plasma was treated with a three-fold volume of acetonitrile. Samples were homogenized and precipitated by centrifugation (20,000 g, 5 min). Samples were concentrated and analyzed using high-performance liquid chromatography (HPLC) with off-line radioactivity detection by LSC (HPLC-LSC).

CYP 3A4 = assay: CYP induction (mRNA and CYP activity); assay type: in vitro ADME, human
From the text: as §1

CYP 2B6 = assay: CYP induction (mRNA and CYP activity); assay type: in vitro ADME, human
From the text: as §1

CYP 2C19 [7] = assay: CYP induction (mRNA and CYP activity); assay type: in vitro ADME, human
From the text: as §1

CYP 1A2 = assay: CYP induction (mRNA and CYP activity); assay type: in vitro ADME, human
From the text: as §1

[8] = 30-min preincubation, read-out: Pre- IC50 (+ NADPH)
[9] = coincubation, read-out: Co- IC50
[10] = female, read-out: AUC(0–24), female animals
[11] = female, read-out: AUC, female animals
[12] = female, read-out: Cmax, female animals
[13] = female, read-out: tmax, female animals
[14] = female, read-out: t½, female animals (converted)
[15] = male, read-out: AUC(0–24), male animals
[16] = male, read-out: AUC, male animals
[17] = male, read-out: Cmax, male animals
[18] = male, read-out: tmax, male animals
[19] = male, read-out: t½, male animals (converted)
[20] = single oral 2.5 mg/kg [14C]-nifurtimox, pooled plasma

Sequence of CYP 2C19 (Homo sapiens, UniProt P33261) (P33261 whole entry, canonical isoform): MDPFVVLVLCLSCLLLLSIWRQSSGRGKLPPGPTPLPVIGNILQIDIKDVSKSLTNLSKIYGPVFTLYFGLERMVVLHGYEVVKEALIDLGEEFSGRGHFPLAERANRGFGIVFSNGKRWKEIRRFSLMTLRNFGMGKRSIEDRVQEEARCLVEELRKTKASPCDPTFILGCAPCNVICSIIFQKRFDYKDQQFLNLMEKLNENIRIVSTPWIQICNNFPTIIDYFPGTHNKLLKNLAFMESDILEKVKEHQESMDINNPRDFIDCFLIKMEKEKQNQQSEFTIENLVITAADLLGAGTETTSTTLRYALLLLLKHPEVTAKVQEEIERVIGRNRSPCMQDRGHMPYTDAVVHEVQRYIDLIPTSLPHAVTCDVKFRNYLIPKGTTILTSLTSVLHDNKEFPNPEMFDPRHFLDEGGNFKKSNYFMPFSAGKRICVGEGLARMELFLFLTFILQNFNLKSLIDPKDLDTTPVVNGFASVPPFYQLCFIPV

With `CC1CS(=O)(=O)CCN1n1cc(SCC(N)C(=O)O)ccc1=O` (stereo not shown) [M-4] as the compound, how does the pIC50 (CYP 2C19 [1]; [8]) read?
The pIC50 was < 4.70.

And the pIC50 (CYP 2C19 [1]; [9])?
Its pIC50 is < 4.70.

What about the “TDI (time-dependent inhibition)” value (CYP 2C19 [1]) of the same compound?
Its value is “No”.

And the “component excreted in urine, oral dosing” value [2]?
The value was “no M-4 was detected”.

And the “AUC(tlast-∞) (extrapolated proportion)” value [3]?
Its value is 48.4%.

What about the “AUC, % of total quantified exposure” value [3] of the same compound?
Its value is 8.9% and 8.9^a %.

And the AUC(0-t) [4, 10]?
The AUC(0-t) was 4.84 µM·h.

And the AUC [4, 11]?
The AUC was 7.41 µM·h.

And the Cmax [4, 12]?
Its Cmax is 568 nM.

And the Tmax [4, 13]?
Its Tmax is 3 h.

What about the half-life [4, 14] of the same compound?
Its half-life is 18.6 h.

What about the AUC(0-t) [4, 15] of the same compound?
Its AUC(0-t) is 4.78 µM·h.

And the AUC [4, 16]?
Its AUC is 9.77 µM·h.

And the Cmax [4, 17]?
Its Cmax is 338 nM.

What about the Tmax [4, 18] of the same compound?
The Tmax was 2 h.

What about the half-life [4, 19] of the same compound?
The half-life was 18.3 h.

And the “ratio of rat:human AUC(0-24)” value [4]?
Its value is 2.0-2.1 fold.

And the “component excreted in bile, i.v. dosing” value [5]?
The value was 0.968 % of the administered dose.

And the “%AUC(0-8) (relative to total radioactivity AUC(0-8))” value ([6]; oral 2.5 mg/kg, M-2+M-3, M-4, M-5 are estimates based on AUC(0-tn), 2.5 mg/kg)?
The value was 2.42^c %.

What about the AUC [6, 20] of the same compound?
Its AUC is 791 µg-eq*h/L.

And the “AUC(0-tn)” value [6, 20]?
Its value is 107 µg-eq*h/L.

And the Cmax [6, 20]?
The Cmax was 48.3 µg-eq/L.

What about the “tn (time of last quantifiable concentration)” value [6, 20] of the same compound?
The value was 3 h.

And the half-life ([6]; rat, single oral 2.5 mg/kg [14C]-nifurtimox, plasma, interval up to 8 h, read-out: t½ (converted))?
The half-life was 12.3 h.

And the Tmax ([6]; rat, single oral 2.5 mg/kg [14C]-nifurtimox, pooled plasma)?
Its Tmax is 0.5 h.

And the “concentration up to which no induction (mRNA and CYP activity)” value (“concentration up to which no induction” for short) (CYP 3A4)?
The value was “up to 80000 µg/L”.

And the “concentration up to which no induction” value (CYP 2B6)?
Its value is “up to 80000 µg/L”.

What about the “concentration up to which no induction” value (CYP 2C19 [7]) of the same compound?
The value was “up to 80000 µg/L”.

What about the “concentration up to which no induction” value (CYP 1A2) of the same compound?
The value was “up to 80000 µg/L”.

With `CC1CS(=O)(=O)CCN1N` (stereo not shown) [M-6] as the compound, how does the pIC50 (CYP 2C19 [1]; [8]) read?
Its pIC50 is < 4.00.

And the pIC50 (CYP 2C19 [1]; [9])?
The pIC50 was < 4.00.

And the “TDI (time-dependent inhibition)” value (CYP 2C19 [1])?
Its value is “No”.

What about the “AUC(tlast-∞) (extrapolated proportion)” value [3] of the same compound?
Its value is 21.8%.

What about the “AUC, % of total quantified exposure” value [3] of the same compound?
Its value is 69.4%.

What about the AUC(0-t) [4, 10] of the same compound?
Its AUC(0-t) is 65.8 µM·h.

What about the AUC [4, 11] of the same compound?
Its AUC is 96.1 µM·h.

What about the Cmax [4, 12] of the same compound?
The Cmax was 3920 nM.

What about the Tmax [4, 13] of the same compound?
Its Tmax is 3 h.

And the half-life [4, 14]?
Its half-life is 13.5 h.

What about the AUC(0-t) [4, 15] of the same compound?
Its AUC(0-t) is 78.4 µM·h.

What about the AUC [4, 16] of the same compound?
Its AUC is 148 µM·h.

And the Cmax [4, 17]?
Its Cmax is 3650 nM.

What about the Tmax [4, 18] of the same compound?
The Tmax was 24 h.

And the half-life [4, 19]?
The half-life was 10.6 h.

What about the “ratio of rat:human AUC(0-24)” value [4] of the same compound?
The value was 2.4-2.8 fold.

And the “concentration up to which no induction” value (CYP 3A4)?
Its value is “up to 90000 µg/L”.

What about the “concentration up to which no induction” value (CYP 2B6) of the same compound?
Its value is “up to 90000 µg/L”.

What about the “concentration up to which no induction” value (CYP 2C19 [7]) of the same compound?
Its value is “up to 90000 µg/L”.

What about the “concentration up to which no induction” value (CYP 1A2) of the same compound?
Its value is “up to 90000 µg/L”.

Reference: paper PMC10661964 (Current Drug Metabolism, 2023)
